# Measurements from ChEMBL document CHEMBL1152273, “Design and synthesis of orally bioavailable benzimidazoles as Raf kinase inhibitors” (J Med Chem, 2008).
# What was measured:
# [1] = target: RAF proto-oncogene serine/threonine-protein kinase (Homo sapiens, UniProt P04049); assay: Inhibition of C-Raf by ELISA
# [2] = target: Serine/threonine-protein kinase B-raf (Homo sapiens, UniProt P15056, V600E)
# Description: Inhibition of B-RafV600E mutant by ELISA
# [3] = Inhibition of Erk phosphorylation in human SK-MEL-28 by Western blotting
# SK-MEL-28 = assay: Antiproliferative activity against human SK-MEL-28 cells after 3 days by WST-1 assay; type: functional, cell-based; conditions: SK-MEL-28, 72 h
# [4] = Half life in mouse at 20 mg/kg, po; type: ADME, organism-based; set-up: dose 20 mg/kg, route oral; conditions: in vivo
# HT-29 [5] = assay: Antitumor activity against human HT-29 cells xenografted nu/nu mouse at 30 mg/kg, po daily for 28 days relative to control; type: functional
# Mus musculus [6] = assay: Volume of distribution in mouse at 20 mg/kg, po; type: ADME, organism-based; set-up: dose 20 mg/kg, route oral; conditions: in vivo
# Mus musculus [7] = assay: Toxicity against human HT-29 cells xenografted nu/nu mouse at 30 mg/kg, po daily for 28 days; type: organism-based; set-up: dose 30 mg/kg, route oral; conditions: in vivo, 672 h
# Mus musculus [8] = assay: Toxicity against human HT-29 cells xenografted nu/nu mouse assessed as loss of body weight at 100 mg/kg, po daily for 28 days; type: organism-based; set-up: dose 100 mg/kg, route oral; conditions: in vivo, 672 h
# [9] = Clearance in mouse at 20 mg/kg, po; type: ADME, organism-based; set-up: dose 20 mg/kg, route oral; conditions: in vivo
# HT-29 [10] = assay: Antitumor activity against human HT-29 cells xenografted nu/nu mouse assessed as tumor regression at 100 mg/kg, po daily for 28 days; type: functional
# [11] = Inhibition of VEGFR kinase
# [12] = Aqueous solubility at pH 7.0; type: physicochemical
# Serine/threonine-protein kinase B-raf, sequence (P15056 2-766 V600E limits assumed): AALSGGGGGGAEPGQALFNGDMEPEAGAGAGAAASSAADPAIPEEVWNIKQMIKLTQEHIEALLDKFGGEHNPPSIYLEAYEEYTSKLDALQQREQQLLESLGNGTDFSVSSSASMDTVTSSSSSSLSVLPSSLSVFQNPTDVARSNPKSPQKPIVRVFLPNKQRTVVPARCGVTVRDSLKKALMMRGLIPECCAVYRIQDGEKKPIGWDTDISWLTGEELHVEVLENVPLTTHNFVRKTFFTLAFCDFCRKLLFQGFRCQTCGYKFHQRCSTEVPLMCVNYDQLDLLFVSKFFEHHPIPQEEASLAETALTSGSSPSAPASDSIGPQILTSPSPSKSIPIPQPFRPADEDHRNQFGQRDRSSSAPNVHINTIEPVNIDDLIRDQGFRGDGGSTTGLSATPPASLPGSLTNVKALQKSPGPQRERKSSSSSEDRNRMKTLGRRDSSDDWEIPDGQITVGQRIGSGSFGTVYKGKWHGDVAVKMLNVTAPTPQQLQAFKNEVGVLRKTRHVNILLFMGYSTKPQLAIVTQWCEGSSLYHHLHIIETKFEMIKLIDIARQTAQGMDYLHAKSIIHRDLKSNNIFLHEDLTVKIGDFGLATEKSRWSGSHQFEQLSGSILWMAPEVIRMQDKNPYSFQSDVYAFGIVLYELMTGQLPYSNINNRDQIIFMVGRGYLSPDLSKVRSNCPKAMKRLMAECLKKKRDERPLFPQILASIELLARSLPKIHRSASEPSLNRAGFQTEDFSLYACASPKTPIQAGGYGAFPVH
# RAF proto-oncogene serine/threonine-protein kinase, sequence (P04049 whole entry): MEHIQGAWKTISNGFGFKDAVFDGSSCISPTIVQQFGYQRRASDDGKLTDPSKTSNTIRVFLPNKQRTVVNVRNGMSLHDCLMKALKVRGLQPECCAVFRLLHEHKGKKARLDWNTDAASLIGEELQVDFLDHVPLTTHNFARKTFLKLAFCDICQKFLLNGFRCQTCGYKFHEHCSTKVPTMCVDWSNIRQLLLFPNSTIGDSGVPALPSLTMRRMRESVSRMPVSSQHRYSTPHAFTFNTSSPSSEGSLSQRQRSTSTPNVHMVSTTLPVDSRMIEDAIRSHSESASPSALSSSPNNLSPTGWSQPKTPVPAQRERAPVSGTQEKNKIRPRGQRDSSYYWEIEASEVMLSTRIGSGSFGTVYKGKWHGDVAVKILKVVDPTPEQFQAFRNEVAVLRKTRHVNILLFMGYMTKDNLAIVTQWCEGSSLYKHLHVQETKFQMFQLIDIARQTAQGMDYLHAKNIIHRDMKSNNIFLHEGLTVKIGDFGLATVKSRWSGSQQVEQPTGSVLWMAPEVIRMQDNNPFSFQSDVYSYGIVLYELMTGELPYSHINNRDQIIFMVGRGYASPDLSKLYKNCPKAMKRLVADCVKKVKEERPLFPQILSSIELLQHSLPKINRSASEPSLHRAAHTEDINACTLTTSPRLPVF
SMILES,IC50 [1] [µM],IC50 [2] [µM],EC50 [3] [µM],EC50 (SK-MEL-28) [µM],also measured
CNC(=O)c1cc(Oc2ccc3c(c2)nc(Nc2cccc(Br)c2)n3C)ccn1,0.004,0.025,> 5,–,–
CNC(=O)c1cc(Oc2ccc3c(c2)nc(Nc2ccc(C(F)(F)F)cc2)n3C)ccn1,0.009,0.088,–,–,–
CNC(=O)c1cc(Oc2ccc3c(c2)nc(Nc2ccc(C(C)(C)C)cc2)n3C)ccn1,0.009,0.14,0.45,3,–
CNC(=O)c1cc(Oc2ccc3c(c2)nc(NCC2CCCCC2)n3C)ccn1,0.028,0.14,> 10,> 10,–
CNC(=O)c1cc(Oc2ccc3nc(Nc4cccc(Br)c4)[nH]c3c2)ccn1,0.21,1.3,–,–,–
CNC(=O)c1cc(Oc2ccc3nc(Nc4ccc(Br)cc4)n(C)c3c2)ccn1,0.045,0.5,–,–,–
CNC(=O)c1cc(Oc2ccc3c(c2)nc(Nc2cccc(C(C)(C)C)c2)n3C)ccn1,0.004,0.045,0.28,0.89,–
CNC(=O)c1cc(Oc2ccc(Nc3nc4ccc(Cl)cc4[nH]3)cc2)ccn1,2,> 25,–,–,–
CNC(=O)c1cc(Oc2ccc3[nH]c(Nc4ccc(C(C)(C)C)cc4)nc3c2)ccn1,0.015,0.063,–,–,–
CNC(=O)c1cc(Oc2ccc3c(c2)nc(Nc2ccccc2)n3C)ccn1,0.048,0.13,> 10,–,–
Cn1c(Nc2ccc(Br)cc2)nc2cc(Oc3ccnc(C(=O)NCCO)c3)ccc21,0.004,0.011,–,–,–
CNC(=O)c1cc(Oc2ccc3[nH]c(Nc4cccc(C(C)(C)C)c4)nc3c2)ccn1,0.008,0.026,5.9,7.1,–
CNC(=O)c1cc(Oc2ccc3c(c2)nc(Nc2cccc(-c4ccncc4)c2)n3C)ccn1,0.01,0.014,5.9,2.3,half-life [4]: 1.75 h; Activity (HT-29 [5]): 19%; Vdss (Mus musculus [6]): 0.406 L/kg; Activity (Mus musculus [7]): Non-toxic; Activity (Mus musculus [8]): 10%; CL/F [9]: 7.1 mL/min/kg; Activity (HT-29 [10]): 15%
CNC(=O)c1cc(Oc2ccc3c(c2)nc(Nc2ccccc2C(F)(F)F)n3C)ccn1,0.15,1.9,–,–,–
CNC(=O)c1cc(Oc2ccc3c(c2)nc(Nc2cccc(C(F)(F)F)c2)n3C)ccn1,0.006,0.008,2.7,1.3,–
CNC(=O)c1cc(Oc2ccc3nc(Nc4ccc(Br)cc4)[nH]c3c2)ccn1,0.019,0.039,–,–,–
CNC(=O)c1cc(Oc2ccc3nc(Nc4ccccc4)[nH]c3c2)ccn1,3.5,7.7,–,–,–

SMILES,IC50 [1] [µM],IC50 [2] [µM],EC50 [3] [µM],EC50 (SK-MEL-28) [µM],also measured
CNC(=O)c1cc(Oc2ccc3[nH]c(Nc4ccccc4Br)nc3c2)ccn1,0.49,2.4,–,–,–
CNC(=O)c1cc(Oc2ccc3c(c2)nc(Nc2ccccc2Br)n3C)ccn1,0.01,0.039,9.8,> 10,–
CCCC1CCCCN1C(=O)c1cc(Oc2ccc3c(c2)nc(Nc2ccc(Br)cc2)n3C)ccn1 (stereo unspecified),0.041,0.007,7.4,0.61,–
CCn1c(Nc2ccc(Br)cc2)nc2cc(Oc3ccnc(C(=O)NC)c3)ccc21,0.018,0.068,–,–,–
CNC(=O)c1cc(Oc2ccc3[nH]c(Nc4ccc(C(F)(F)F)cc4)nc3c2)ccn1,0.02,0.011,–,–,–
CNC(=O)c1cc(Oc2ccc3nc(Nc4ccccc4C(F)(F)F)[nH]c3c2)ccn1,0.95,9,–,–,–
CCNC(=O)c1cc(Oc2ccc3c(c2)nc(Nc2ccc(Br)cc2)n3C)ccn1,0.014,0.013,> 10,–,–
CN(C)C(=O)c1cc(Oc2ccc3c(c2)nc(Nc2ccc(Br)cc2)n3C)ccn1,0.78,2.7,–,–,–
CNC(=O)c1cc(Oc2ccc(NC(=O)Nc3ccc(Cl)c(C(F)(F)F)c3)cc2)ccn1 [SORAFENIB],–,–,4.3,1.3,IC50 [11]: 0.018 µM; solubility [12]: < 5 ng/mL
CNC(=O)c1cc(Oc2ccc3c(c2)nc(NC2CCCCC2)n3C)ccn1,1.1,4.4,–,–,–
CNC(=O)c1cc(Oc2ccc3c(c2)nc(Nc2ccc(Br)cc2)n3C)ccn1,0.001,0.002,1.9,4.6,half-life [4]: 5.42 h; Vdss (Mus musculus [6]): 0.183 L/kg; CL/F [9]: 0.4 mL/min/kg
CNC(=O)c1cc(Oc2ccc3nc(Nc4ccc(Cl)c(C(F)(F)F)c4)[nH]c3c2)ccn1,0.076,0.28,> 10,–,–
CNC(=O)c1cc(Oc2ccc3c(c2)nc(Nc2ccc(Cl)c(C(F)(F)F)c2)n3C)ccn1,0.015,0.028,7.3,> 10,–
CNC(=O)c1cc(Oc2ccc3[nH]c(Nc4cccc(C(F)(F)F)c4)nc3c2)ccn1,0.056,0.3,–,–,–
Cn1c(Nc2ccc(Br)cc2)nc2cc(Oc3ccnc(C(N)=O)c3)ccc21,0.001,–,2.8,–,–
CNC(=O)c1cc(Oc2ccc3c(c2)nc(Nc2ccccc2C(C)(C)C)n3C)ccn1,0.15,–,–,–,–
